A short description of the series: physchem. The text has this: The segments were synthesized at a cGMP facility using standard techniques for amino acid synthesis.

In patent publication US10213486B2, “Formulations of diluted amino acid segments and methods for making same” (priority 2011, dated 2019) one finds solubility data, which are given here for one compound.

SMILES strings stand for the structures. Converted amounts (≈) assume the structure as drawn. Peptide text beside a SMILES is read from it.

Compound `CC[C@H](C)[C@H](NC(=O)[C@@H]1CCCN1C(=O)[C@H](C)NC(=O)CNC(=O)[C@@H]1CCCN1C(=O)[C@H](CCC(N)=O)NC(=O)[C@H](CO)NC(=O)[C@H](Cc1ccccc1)NC(=O)[C@H](Cc1ccccc1)NC(=O)[C@@H]1CCCN1C(=O)[C@H](CC(N)=O)NC(=O)[C@H](CCC(=O)O)NC(=O)[C@H](CCC(N)=O)NC(=O)[C@H](CC(C)C)NC(=O)[C@@H](NC(=O)[C@H](CS)NC(=O)[C@H](CCC(=O)O)NC(=O)[C@@H]1CCCN1C(=O)[C@H](CS)NC(=O)[C@H](CC(=O)O)NC(=O)[C@H](CCC(N)=O)NC(=O)[C@@H](NC(=O)[C@H](CC(=O)O)NC(=O)[C@@H]1CCCN1C(=O)[C@H](C)N)C(C)C)[C@@H](C)O)C(=O)O` [first amino acid segment] (H-APDVQDCPECTLQENPFFSQPGAPI-OH) showed a solubility of 1 mg/mL (≈ 370 µM).
